Test results published in patent US20060040951A1, “Use of 5-ht2 receptor antagonists for the treatment of sleep disorders” (Merck Patent GmbH, priority 2002, published 2006).

Assays:
[1] = system: rats; test: Example B: EEG sleep-stage recording of non-anaesthetised rats over 12 hours, crossover study versus vehicle; type: in vivo, rat
Procedure: In order to measure the brain waves, EEG electrodes are implanted into the brain of anaesthetised rats. After a recovery time of 15 days, these electrodes are connected to an amplifier via a flexible cable, and the brain waves of the non-anaesthetised animals are recorded over 12 hours. (3-Cyano-1H-indol-7-yl)-[4-(4-fluorophenethyl)piperazin-1-yl]methanone is dissolved in advance in a concentration of 0.1 ml/100 g of peanut oil. This solution (compound) or, for comparison, merely the solvent (vehicle) is administered orally to the test animals in a dose of 3 mg/kg. From the filtered and amplified brain-wave signals, the sleep stages are evaluated via Fourier spectral analysis including certain criteria. The REM and non-REM sleep stages can be identified with reference to the patterns. The experimental results are shown in Tables 1 (effect of the substance) and 2 (significances of the measurement values). It becomes clear that (3-cyano-1H-indol-7-yl)-[4-(4-fluorophenethyl)piperazin-1-yl]methanone results in a significant extension both of non-REM sleep and of REM sleep and that these extensions are significant.
This experiment is a crossover study. This means that one and the same animal receives either first solvent (vehicle) and then, after a waiting time of one week, the test substance (3-cyano-1H-indol-7-yl)-[4-(4-fluorophenethyl)piperazin-1-yl]methanone (compound), or the administration is carried out in the reverse sequence.
The measured values after vehicle or compound administration are compared with one another using the statistical method of analysis of variance (ANOVA). The p value is a statistical measure of the probability that a difference occurs by chance between the measurement values or is caused by the substance administration. According to international standards, a p value of below 0.05 is regarded as “significant”.
It is clear from FIG. 1 that in particular stages 3 and 4, which are regarded as slow-wave sleep, are extended in non-REM sleep. […] The term delta power or delta waves denotes the “slow” waves recorded in the EEG which are characteristic of slow-wave sleep stages. For each rat, the hour average after solvent (vehicle) treatment was firstly determined and subtracted from the value after substance treatment.

[2] = system: rats; test: Brain-wave (EEG) recording of rats over 6 hours during the dark phase; type: in vivo, rat
[3] = cited from earlier work
[4] = rats, 3 mg/kg orally in peanut oil, 12 h recording, average ± standard error
[5] = rats, 3 mg/kg orally, 12 h recording, average ± standard error
[6] = 3 mg/kg per os, 6 h recording during dark phase

SMILES: N#Cc1c[nH]c2c(C(=O)N3CCN(CCc4ccc(F)cc4)CC3)cccc12 [(3-cyano-1H-indol-7-yl)-[4-(4-fluorophenethyl)piperazin-1-yl]methanone]
- relative delta power in the rat EEG, difference from the control level ([1]; FIG. 1, as a function of the time of day): significantly increased overall
- NREM sleep Total Time [1, 4]: 232.8 ± 13.1 min
- REM sleep Total Time [1, 4]: 45.3 ± 3.8 min
- Wakefulness Total Time [1, 4]: 440.6 ± 15.1 min
- Inter-REM interval [1, 5]: 28.8 ± 3.0 min
- NREM sleep Episode Duration [1, 5]: 184.8 ± 9.5 s
- REM Latency [1, 5]: 5.2 ± 0.3 min
- REM sleep Episode Duration [1, 5]: 93.1 ± 6.6 s
- Wakefulness Episode Duration [1, 5]: 422.5 ± 29.3 s
- average increase in non-REM sleep [2, 6]: about 4 min/h
- maximum increase in non-REM sleep [2, 6]: about 5 minutes per hour
- extension of REM sleep, average ([2]; 6 h dark phase): 0.8 min/h
- extension of REM sleep, maximum ([2]; 6 h dark phase): 2 min/h
- what the change in REM sleep results from ([2]; 6 h dark phase): increase in the number of REM episodes

SMILES: CCc1nn(CCCN2CCN(c3cccc(Cl)c3)CC2)c(=O)n1CCOc1ccccc1 [nefazodone]
- effect on REM sleep ([3]; literature report): extend REM sleep
- effect on slow-wave phases 3 and 4 of non-REM sleep ([3]; literature report): remain unchanged

SMILES: O=C1CCC(N2C(=O)c3ccccc3C2=O)C(=O)N1 (centres unmarked) [thalidomide]
- effect on both sleep phases ([3]; known sleeping drug): extends both sleep phases

SMILES: Cc1nnc2n1-c1ccc(Cl)cc1C(c1ccccc1Cl)=NC2 [triazolam, reference compound]
- what the change in REM sleep results from ([2]; 6 h dark phase): reduction in the duration of the individual REM phases
- extension of non-REM sleep ([2]; dose 0.1 mg/kg, 6 h dark phase): 2 min/h
- extension of non-REM sleep (maximum effect) ([2]; dose 0.4 mg/kg, 6 h dark phase): 6.5 min/h
